Measured values as given in patent US10570117B2, “Phenylimidazole compound” (Otsuka Pharmaceutical Factory, Inc., priority 2015, dated 2020).
Values after ≈ are worked out from the molar mass of the structure shown. Read-outs that look alike come from different tables or passages of the source.

Key:
[1] = tested on: lipoprotein lipase (LPL) gene; assay: LPL mRNA elevating action (RT-PCR quantification of LPL mRNA in C2Cl2 cells); assay type: cell-based, mouse; conditions: Mus musculus, 24 h, compound 10 μM, ratio relative to the amount of LPL mRNA in cells with DMSO only, read-out: Rate of increase in LPL mRNA
Method in brief: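 Mouse striated-muscle C2Cl2 cells in DMEM with 10% FBS exposed to compounds at 10 μM for 24 h. LPL mRNA quantified by RT-PCR and real-time PCR (20 cycles), expressed as ratio to DMSO-only cells set at 1.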

[2] = Solubility in gastric juice or intestinal juice model fluid (precipitation method using DMSO); assay type: physicochemical; conditions: room temperature
Method in brief: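 Compound in DMSO added to JP disintegration test fluid 1 (pH 1.2) or fluid 2 (pH 6.8) and shaken 24 h at room temperature. After filtration, dissolved concentration (μg/mL) determined by UV absorbance against compound calibration curves.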

[3] = pH 1.2, simulated gastric fluid, kinetic from dmso stock, 1st fluid for Disintegration Test of Japanese Pharmacopoeia (pH: 1.2), read-out: Solubility (μg/mL) 1st fluid
[4] = pH 6.8, kinetic from dmso stock, 2nd fluid for Disintegration Test of Japanese Pharmacopoeia (pH: 6.8), read-out: Solubility (μg/mL) 2nd fluid

Row | Structure (SMILES) | fold induction at 10 µM [1] | melting point | solubility at 24 h [2, 3] | solubility at 24 h [2, 4]
1 | COc1cc(OCc2ncc(Cl)cc2Br)ccc1-c1[nH]c(-c2ccc(F)nc2)nc1Cl [Example 265] | 3.36 | 195 to 199 °C | 2.2 µg/mL (≈ 4.2 µM) | 5.8 µg/mL (≈ 11.1 µM)
2 | COCCOc1cc(OCc2ccc(C(F)(F)F)cn2)ccc1-c1nc(-c2ccc(Cl)nc2)[nH]c1Cl [Example 218] | 1.21 | 170 to 172 °C | 0.4 µg/mL (≈ 0.742 µM) | < 9.6 µg/mL
3 | COc1cc(OCc2ncc(F)cc2F)ccc1-c1[nH]c(-c2ccc(F)nc2)nc1Br [Example 266] | 2.38 | 161 to 164 °C | 64.3 µg/mL (≈ 131 µM) | 4.6 µg/mL (≈ 9.36 µM)
4 | Cc1cc(OCc2ncc(C(F)(F)F)cc2F)ccc1-c1[nH]c(-c2ccc(F)nc2)nc1Cl [Example 352] | 5.48 | 204 to 206 °C | 9.8 µg/mL (≈ 20.4 µM) | 6 µg/mL (≈ 12.5 µM)
5 | COc1c(OCc2ccc(C(F)(F)F)nc2)ccc(-c2[nH]c(C3CCC(F)(F)CC3)nc2Cl)c1OC [Example 200] | 4.73 | 148 to 150 °C | 98.4 µg/mL (≈ 185 µM) | 2.4 µg/mL (≈ 4.51 µM)
6 | COc1cc(OCc2ccc(C(F)(F)F)nc2)ccc1-c1c(C)nc(-c2ccc(Cl)nc2)n1C [Example 153, 2-chloro-5-[5-[2-methoxy-4-((6-(trifluoromethyl)pyridin-3-yl)methoxy)phenyl]-1,4-dimethyl-1H-imidazol-2-yl]pyridine] | 4.61 | 148 to 150 °C | > 98 µg/mL | 1.7 µg/mL (≈ 3.48 µM)
7 | COc1cc(OCc2ccc(C(F)(F)F)nc2)ccc1-c1nc(-c2ccc(F)nc2)[nH]c1C [Example 24] | 2.94 | 169 to 171 °C | 53.6 µg/mL (≈ 117 µM) | 1.8 µg/mL (≈ 3.93 µM)
8 | COc1cc(OCc2ccc(C(F)(F)F)cn2)ccc1-c1[nH]c(C2CCCC(F)(F)C2)nc1Cl (stereo not shown) [Example 182] | 3.41 | 162 to 164 °C | 95.5 µg/mL (≈ 190 µM) | 1.9 µg/mL (≈ 3.79 µM)
9 | COc1cc(-c2c[nH]c(-c3ccc(F)nc3)n2)cc(OC)c1OCc1ccc(C(F)(F)F)cn1 [Example 46] | 2.49 | 107 to 110 °C | 22.9 µg/mL (≈ 48.3 µM) | < 9.1 µg/mL
10 | Fc1ccc(-c2nc(Cl)c(-c3ccc(OCc4ncc(C(F)(F)F)cc4F)cc3)[nH]2)cn1 [Example 355] | 3.59 | 180 to 183 °C | < 0.3 µg/mL | < 0.3 µg/mL
11 | COc1cc(-c2[nH]c(C3CCC(F)(F)C3)nc2Cl)ccc1OCc1ncc(C(F)(F)F)cc1F (stereo not shown) [Example 347] | 3.28 | 142 to 147 °C | 83.2 µg/mL (≈ 164 µM) | < 0.4 µg/mL
12 | COc1cc(OCc2ncc(Br)cc2F)ccc1-c1[nH]c(-c2ccc(F)nc2)nc1Br [Example 268] | 2.53 | 179 to 181 °C | 13.8 µg/mL (≈ 25 µM) | 6.6 µg/mL (≈ 12 µM)
13 | COc1cc(OCc2ncc(C(F)(F)F)cc2Br)ccc1-c1cnc(-c2ccc(F)nc2)[nH]1 [Example 133] | 2.43 | 153 to 170 °C | 29.3 µg/mL (≈ 56 µM) | 2 µg/mL (≈ 3.82 µM)
14 | COc1cc(O)ccc1-c1[nH]c(-c2ccc(F)nc2)nc1Cl [Example 313] | 1.33 | 209 to 214 °C (dec.) | 62.3 µg/mL (≈ 195 µM) | 5 µg/mL (≈ 15.6 µM)
15 | COc1cc(OC(C)c2cccc(C(F)(F)F)n2)ccc1-c1[nH]c(-c2ccc(F)nc2)nc1Cl (stereo not shown) [Example 237] | 2.82 | 170 to 175 °C | 7.1 µg/mL (≈ 14.4 µM) | < 1.8 µg/mL
16 | COc1cc(OCc2coc(C)n2)ccc1-c1cnc(C2CCC(F)(F)CC2)[nH]1 [Example 13] | 2.31 | 52 to 63 °C | > 81 µg/mL | 74 µg/mL (≈ 183 µM)

Row | Structure (SMILES) | fold induction at 10 µM [1] | melting point | solubility at 24 h [2, 3] | solubility at 24 h [2, 4]
17 | COc1cc(OCc2ncc(C(F)(F)F)cc2F)ccc1-c1cnc(CCC(F)(F)F)[nH]1 [Example 390] | 2.09 | 76 to 91 °C | 49.5 µg/mL (≈ 107 µM) | 21.6 µg/mL (≈ 46.6 µM)
18 | COc1cc(-c2[nH]c(C3CC(F)(F)C3)nc2Br)ccc1OCc1ccc(C(F)(F)F)nc1 [Example 178] | 3.58 | 168 to 170 °C | 98.5 µg/mL (≈ 190 µM) | 1.7 µg/mL (≈ 3.28 µM)
19 | CCc1cc(OCc2ncc(C(F)(F)F)cc2F)ccc1-c1[nH]c(-c2ccc(F)nc2)nc1Cl [Example 364] | 2.65 | 187 to 188 °C | < 0.4 µg/mL | < 0.4 µg/mL
20 | COc1cc(-c2nc(-c3ccc(F)nc3)[nH]c2Cl)ccc1OCc1ncccc1F [Example 212] | 2.22 | 161 to 163 °C | 76.9 µg/mL (≈ 179 µM) | 0.5 µg/mL (≈ 1.17 µM)
21 | COc1cc(OCc2ncc(C(F)(F)F)cc2F)ccc1-c1[nH]c(C2CC(F)(F)C2)nc1C [Example 399] | 4.68 | 172 to 174 °C | 54.1 µg/mL (≈ 115 µM) | 3.4 µg/mL (≈ 7.21 µM)
22 | CCOC(C)n1cc(-c2ccc(OCc3ccc(C(F)(F)F)nc3)cc2OC)nc1-c1ccc(F)nc1 (stereo not shown) [Example 328] | 2.41 | 102 to 104 °C | 44.2 µg/mL (≈ 85.6 µM) | 0.4 µg/mL (≈ 0.774 µM)
23 | CCOC(C)n1c(-c2ccc(F)nc2)nc(-c2ccc(OCc3ccc(C(F)(F)F)nc3)cc2OC)c1I (stereo not shown) [Example 330] | 1.88 | 129 to 131 °C | 6.5 µg/mL (≈ 10.1 µM) | 0.9 µg/mL (≈ 1.4 µM)
24 | Fc1ccc(-c2ncc(-c3ccc(OCc4ncc(C(F)(F)F)cc4F)cc3Cl)[nH]2)cn1 [Example 360] | 3.93 | 169 to 171 °C | 90.7 µg/mL (≈ 194 µM) | 0.6 µg/mL (≈ 1.29 µM)
25 | COc1cc(OCc2cccnc2C(F)(F)F)ccc1-c1cnc(-c2ccc(Cl)nc2)[nH]1 [Example 108] | 3.03 | 231 to 233 °C | 4.1 µg/mL (≈ 8.9 µM) | < 0.3 µg/mL
26 | COc1cc(OCc2ncc(C(F)(F)F)cc2F)ccc1-c1[nH]c(-c2ccc(F)nc2)nc1F [Example 319] | 3.74 | 156 to 158 °C | 4.7 µg/mL (≈ 9.78 µM) | 0.5 µg/mL (≈ 1.04 µM)
27 | COc1cc(OCc2ccncc2C(F)(F)F)ccc1-c1cnc(-c2ccc(F)nc2)[nH]1 [Example 136] | 2.71 | 181 to 192 °C | > 89 µg/mL | 2.2 µg/mL (≈ 4.95 µM)
28 | COc1cc(OCc2ncc(C(F)(F)F)cc2F)ccc1-c1cnc(C2CC(F)(F)C2)[nH]1 [Example 349] | 2.2 | 70 to 75 °C | 83.6 µg/mL (≈ 183 µM) | 10.8 µg/mL (≈ 23.6 µM)
29 | COc1cc(-c2[nH]c(C3CC(F)(F)C3)nc2Br)ccc1OCc1ccc(C(F)(F)F)cn1 [Example 190] | 3.58 | 151 to 157 °C | 92.5 µg/mL (≈ 178 µM) | 2 µg/mL (≈ 3.86 µM)
30 | COc1cc(OCc2ccc(C(F)(F)F)nc2)ccc1-c1c[nH]c(-c2ccc(F)nc2)n1 [Example 1, 2-fluoro-5-[5-[2-methoxy-4-((6-(trifluoromethyl)pyridin-3-yl)methoxy)phenyl]-1H-imidazol-2-yl]pyridine] | 2.97 | 165 to 166 °C | 20.7 µg/mL (≈ 46.6 µM) | 1.7 µg/mL (≈ 3.83 µM)
31 | COc1cc(-c2[nH]c(C3CCC3)nc2Cl)ccc1OCc1ccc(C(F)(F)F)cn1 [Example 193] | 4.32 | 158 to 170 °C | 86.4 µg/mL (≈ 197 µM) | 0.8 µg/mL (≈ 1.83 µM)
